From patent US12043601B2, “N-substituted-1H-1,2,4-triazole-3-carboxamides, analogues thereof, and methods of treatment using same” (THE REGENTS OF THE UNIVERSITY OF COLORADO, priority 2018, dated 2024)
≈ marks a conversion by molar mass, not a printed value.

What was measured:
Salmonella strain 14028s = test: Minimum inhibitory concentration in EG minimal media; format: cell-based, Salmonella Typhimurium; details: 18 h; for Growth in EG at concentration tested 1 μg/ml / Growth in EG at concentration tested 2 μg/ml / Growth in EG at concentration tested 4 μg/ml / Growth in EG at concentration tested 8 μg/ml / Growth in EG at concentration tested 16 μg/ml / Growth in EG at concentration tested 32 μg/ml: EG minimal media, 37° C.; for MIC: Salmonella, 14028S
Procedure: DksA controls transcription of metabolic and virulence genes, allowing bacteria to both grow in minimum media and cause disease. Inhibition of bacterial growth in EG minimum media was used as an easy and reliable proxy of the DksA-dependent regulation of metabolism.
In a non-limiting example, wild-type Salmonella strain 14028s was grown overnight (18.5 h), and then diluted in EG minimal media to a density of about 10^5 CFU/mL. […] Each test tube was incubated at 37° C. with shaking for 18 h and bacterial growth was evaluated. The MIC value was determined as the lowest concentration of compound that inhibited growth.

DksA = DksA (Salmonella typhimurium, UniProt P0A1G5); test: DksA-dependent livJ in vitro transcription; format: biochemical; details: livJ promoter; for IVT: concentration showing activity
Chain of DksA (P0A1G5 whole entry): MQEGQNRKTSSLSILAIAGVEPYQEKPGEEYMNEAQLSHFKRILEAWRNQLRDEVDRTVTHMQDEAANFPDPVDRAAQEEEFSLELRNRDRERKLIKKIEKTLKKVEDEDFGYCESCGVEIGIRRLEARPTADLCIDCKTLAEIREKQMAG
Procedure: To measure the potency of a compound in inhibition of DksA biological function, rpsMtranscripts in vitro was determined by non-radioactive in vitro transcription reactions with qPCR analysis with divergent compounds. Briefly, 5 nM pTIM-rpsMplasmid was mixed with […] of compounds in 10 μl reaction buffer (40 mM HEPES [pH 7.4], 2 mM MgCl2, 60 mM potassium glutamate, 0.05% NP-40, 200 μM ATP, 200 μM GTP, 200 μM CTP, 200 μM UTP, and 5 nM E. coli RNA polymerase holoenzyme (NEB, Ipswich, MA) with 5 μM DksA. The in vitro transcription was carried out at 37° C. for 10 min, and then terminated at 70° C. for 10 min. To remove template DNA after treated with DNaseI, DNA-free DNA Removal kit (ThermoFisher) was used according to manufacturer's direction. The resulting materials were used as templates to generate cDNA with 100 U MMLV reverse transcriptase (Promega), 0.45 μM gene specific primer, and 20 U RNase inhibitor (Promega). The amount of cDNA synthesized for 1 h at 42° C. was quantified by real-time PCR (qRT-PCR). The copy number of specific transcripts was calculated to the standard curve generated with known gene copy concentrations. The IC50 is the concentration at which the curve passes through the 50% inhibition level. Standard deviation was calculated from 3 independent experiments.
The compounds were initially tested at 0.1 μM and 1 μM using as a target the promoter of the livJ gene that encodes a transporter of branch-chain amino acids (Table 4).

Compound solubility = format: physicochemical; details: for Compound Solubility, 1 μM: solvent at 1 μM; for Compound Solubility, 10 μM: solvent at 10 μM; for Compound Solubility, 100 μM: solvent at 100 μM; for Compound Solubility, 1 mM: solvent at 1 mM; for Compound Solubility, 10 mM: solvent at 10 mM; for Compound Solubility, 16 mg/ml: solvent at 16 mg/ml

Row | SMILES | Growth in EG at concentration tested 1 μg/ml (Salmonella strain 14028s) | Growth in EG at concentration tested 2 μg/ml (Salmonella strain 14028s) | Growth in EG at concentration tested 4 μg/ml (Salmonella strain 14028s) | Growth in EG at concentration tested 8 μg/ml (Salmonella strain 14028s) | MIC (Salmonella strain 14028s) | In vitro transcription assay result, 0.1 μM (DksA) | In vitro transcription assay result, 1 μM (DksA) | IVT (DksA) | Compound Solubility, 1 μM (Compound solubility) | Compound Solubility, 10 μM (Compound solubility) | Compound Solubility, 100 μM (Compound solubility) | Compound Solubility, 1 mM (Compound solubility) | Compound Solubility, 10 mM (Compound solubility) | Compound Solubility, 16 mg/ml (Compound solubility) | Growth in EG at concentration tested 16 μg/ml (Salmonella strain 14028s) | Growth in EG at concentration tested 32 μg/ml (Salmonella strain 14028s)
1 | COc1cccc(CNC(=O)c2nc[nH]n2)c1OC [Compound 3, N-(2,3-dimethoxybenzyl)-1H-1,2,4-triazole-3-carboxamide] | + | + | + | + | 32 µg/mL (≈ 122 µM) | no induction | no induction | 0.1 µM | water | water | water | water | water | DMSO | – | –
2 | COc1ccc(CNC(=O)c2nc[nH]n2)cc1OC [Compound 2, N-(3,4-dimethoxybenzyl)-1H-1,2,4-triazole-3-carboxamide] | + | + | + | + | – | no change | no change | – | water | water | water | water | water | DMSO | + | +
3 | CC(C)(C)c1ccc(NC(=O)c2nc[nH]n2)cc1 [Compound 13, N-(4-(tert-butyl)phenyl)-1H-1,2,4-triazole-3-carboxamide] | + | + | + | + | – | no induction | no induction | 0.1 µM | water | water | water | water | DMSO | DMSO | + | +
4 | COc1cccc(CNC(=O)c2nc[nH]n2)c1 [Compound 7, N-(3-methoxybenzyl)-1H-1,2,4-triazole-3-carboxamide] | + | + | + | – | 8 µg/mL (≈ 34.4 µM) | no change | no change | – | water | water | water | water | water | DMSO | – | –
